{
  "source": "paper doi:10.1101/2023.10.20.563248v1",
  "about": "(biorxiv, 2023)",
  "key": {"[1]": {"molecular_target": "MST3 (full-length, NanoLuc fusion) (Homo sapiens, UniProt Q9Y6E0)", "assay": "cell-based"}, "LIMK2": {"molecular_target": "LIMK2 (Homo sapiens, UniProt P53671)", "assay": "NanoBRET tracer displacement, HEK293T", "format": "cell-based"}, "IRAK1": {"molecular_target": "IRAK1 (Homo sapiens, UniProt P51617)", "conditions": "1 µM; inhibitor"}, "CDK17": {"molecular_target": "CDK17 (Homo sapiens, UniProt Q00537)", "conditions": "1 µM; inhibitor"}, "PHKG2": {"molecular_target": "PHKG2 (Homo sapiens, UniProt P15735)", "conditions": "1 µM; inhibitor"}, "SNK": {"molecular_target": "SNK (Homo sapiens, UniProt Q9NYY3)", "conditions": "1 µM; inhibitor"}, "PAK3": {"molecular_target": "PAK3 (Homo sapiens, UniProt O75914)", "sequence (O75914 whole entry)": "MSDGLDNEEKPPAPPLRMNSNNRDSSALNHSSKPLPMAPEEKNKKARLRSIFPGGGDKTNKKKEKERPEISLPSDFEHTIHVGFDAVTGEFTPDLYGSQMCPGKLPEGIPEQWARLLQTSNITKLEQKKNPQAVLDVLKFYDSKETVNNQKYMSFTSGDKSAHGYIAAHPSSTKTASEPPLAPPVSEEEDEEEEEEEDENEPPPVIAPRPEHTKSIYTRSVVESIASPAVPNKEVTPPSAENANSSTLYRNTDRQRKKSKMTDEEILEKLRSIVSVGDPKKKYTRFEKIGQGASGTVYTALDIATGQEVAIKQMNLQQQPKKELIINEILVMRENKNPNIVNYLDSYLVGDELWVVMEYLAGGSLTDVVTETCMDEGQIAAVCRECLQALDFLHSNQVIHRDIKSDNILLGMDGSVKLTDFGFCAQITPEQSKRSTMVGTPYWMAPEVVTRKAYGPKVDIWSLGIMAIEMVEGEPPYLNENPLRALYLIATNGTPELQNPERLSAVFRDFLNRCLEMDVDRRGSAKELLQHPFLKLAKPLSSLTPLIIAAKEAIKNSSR", "conditions": "1 µM; inhibitor"}, "PIM2": {"molecular_target": "PIM2 (Homo sapiens, UniProt Q9P1W9)", "conditions": "1 µM; inhibitor"}, "SRC": {"molecular_target": "SRC (Homo sapiens, UniProt P12931)", "conditions": "1 µM; inhibitor"}, "HIPK4": {"molecular_target": "HIPK4 (Homo sapiens, UniProt Q8NE63)", "conditions": "1 µM; inhibitor"}, "VRK1": {"molecular_target": "VRK1 (Homo sapiens, UniProt Q99986)", "sequence (Q99986 whole entry)": "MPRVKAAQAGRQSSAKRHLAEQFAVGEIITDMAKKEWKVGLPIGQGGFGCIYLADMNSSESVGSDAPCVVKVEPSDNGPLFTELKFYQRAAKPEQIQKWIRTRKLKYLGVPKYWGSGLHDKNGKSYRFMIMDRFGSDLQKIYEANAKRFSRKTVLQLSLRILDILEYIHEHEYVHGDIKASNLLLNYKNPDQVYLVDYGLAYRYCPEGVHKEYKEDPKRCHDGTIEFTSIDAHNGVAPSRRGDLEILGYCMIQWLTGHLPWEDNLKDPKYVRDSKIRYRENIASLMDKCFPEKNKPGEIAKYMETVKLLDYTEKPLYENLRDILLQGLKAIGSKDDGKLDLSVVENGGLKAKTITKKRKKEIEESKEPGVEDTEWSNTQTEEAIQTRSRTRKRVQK", "conditions": "1 µM; inhibitor"}, "PKCmu": {"molecular_target": "PKCmu (Homo sapiens, UniProt Q15139)", "sequence (Q15139 whole entry)": "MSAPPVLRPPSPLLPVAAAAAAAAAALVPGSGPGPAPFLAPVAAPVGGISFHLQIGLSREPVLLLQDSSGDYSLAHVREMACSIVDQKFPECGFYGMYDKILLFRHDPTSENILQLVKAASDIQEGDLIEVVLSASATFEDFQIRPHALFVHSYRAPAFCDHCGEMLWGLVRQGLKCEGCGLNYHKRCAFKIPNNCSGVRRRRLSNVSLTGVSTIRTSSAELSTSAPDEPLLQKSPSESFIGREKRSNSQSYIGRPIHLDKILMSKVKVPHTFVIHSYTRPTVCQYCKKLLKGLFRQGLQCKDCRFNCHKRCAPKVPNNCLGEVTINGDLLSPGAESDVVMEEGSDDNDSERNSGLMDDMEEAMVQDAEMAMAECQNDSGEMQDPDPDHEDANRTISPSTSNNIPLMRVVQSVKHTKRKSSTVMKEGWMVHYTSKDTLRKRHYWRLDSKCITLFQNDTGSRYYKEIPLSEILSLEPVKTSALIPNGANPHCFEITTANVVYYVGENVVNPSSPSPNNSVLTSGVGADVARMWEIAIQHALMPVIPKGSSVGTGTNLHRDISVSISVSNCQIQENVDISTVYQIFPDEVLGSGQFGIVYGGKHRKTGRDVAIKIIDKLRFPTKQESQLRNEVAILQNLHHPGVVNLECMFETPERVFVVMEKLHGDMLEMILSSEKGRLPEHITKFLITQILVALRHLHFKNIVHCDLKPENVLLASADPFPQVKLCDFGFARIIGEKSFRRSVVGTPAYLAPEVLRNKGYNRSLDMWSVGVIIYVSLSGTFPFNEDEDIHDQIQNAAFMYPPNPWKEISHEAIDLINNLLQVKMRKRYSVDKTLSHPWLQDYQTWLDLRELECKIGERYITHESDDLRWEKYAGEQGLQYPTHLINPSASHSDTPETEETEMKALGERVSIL", "conditions": "1 µM; inhibitor"}, "PKCz": {"molecular_target": "PKCz (Homo sapiens, UniProt Q05513)", "conditions": "1 µM; inhibitor"}, "KIT": {"molecular_target": "KIT (Homo sapiens, UniProt P10721)", "conditions": "1 µM; inhibitor"}, "RPS6KA2": {"molecular_target": "RPS6KA2 (Homo sapiens, UniProt Q15349)", "conditions": "1 µM; inhibitor"}, "BMPR1B": {"molecular_target": "BMPR1B (Homo sapiens, UniProt O00238)", "conditions": "1 µM; inhibitor"}, "CAMKK2": {"molecular_target": "CAMKK2 (Homo sapiens, UniProt Q96RR4)", "conditions": "1 µM; inhibitor"}, "EPHB3": {"molecular_target": "EPHB3 (Homo sapiens, UniProt P54753)", "sequence (P54753 whole entry)": "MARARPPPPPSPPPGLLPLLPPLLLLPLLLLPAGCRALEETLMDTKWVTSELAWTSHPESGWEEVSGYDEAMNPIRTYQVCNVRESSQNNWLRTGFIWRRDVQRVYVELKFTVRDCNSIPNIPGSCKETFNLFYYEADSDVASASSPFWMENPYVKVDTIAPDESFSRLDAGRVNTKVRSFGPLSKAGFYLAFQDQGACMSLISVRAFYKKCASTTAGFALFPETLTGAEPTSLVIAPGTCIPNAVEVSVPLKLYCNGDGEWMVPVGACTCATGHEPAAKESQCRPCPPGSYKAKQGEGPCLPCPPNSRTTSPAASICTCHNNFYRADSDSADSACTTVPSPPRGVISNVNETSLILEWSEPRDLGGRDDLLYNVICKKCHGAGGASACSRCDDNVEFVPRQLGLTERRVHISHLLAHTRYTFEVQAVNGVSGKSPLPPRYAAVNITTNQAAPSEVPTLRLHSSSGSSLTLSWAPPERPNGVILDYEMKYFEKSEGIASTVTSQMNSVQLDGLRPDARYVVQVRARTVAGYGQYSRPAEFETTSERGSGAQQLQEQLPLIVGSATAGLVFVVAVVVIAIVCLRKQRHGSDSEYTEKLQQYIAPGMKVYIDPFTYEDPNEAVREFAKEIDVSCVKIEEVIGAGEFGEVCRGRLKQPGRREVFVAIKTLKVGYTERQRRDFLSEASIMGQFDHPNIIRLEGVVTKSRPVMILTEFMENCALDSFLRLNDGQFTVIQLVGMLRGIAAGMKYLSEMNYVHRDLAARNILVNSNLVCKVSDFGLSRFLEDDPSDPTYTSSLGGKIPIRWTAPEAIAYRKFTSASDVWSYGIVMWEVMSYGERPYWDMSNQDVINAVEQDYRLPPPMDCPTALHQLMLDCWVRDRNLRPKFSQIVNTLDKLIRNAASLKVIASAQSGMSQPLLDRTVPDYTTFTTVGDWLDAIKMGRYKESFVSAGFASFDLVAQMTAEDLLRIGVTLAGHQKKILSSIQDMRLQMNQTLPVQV", "conditions": "1 µM; inhibitor"}, "MATK": {"molecular_target": "MATK (Homo sapiens, UniProt P42679)", "conditions": "1 µM; inhibitor"}, "HRI": {"molecular_target": "HRI (Homo sapiens, UniProt Q9BQI3)", "sequence (Q9BQI3 whole entry)": "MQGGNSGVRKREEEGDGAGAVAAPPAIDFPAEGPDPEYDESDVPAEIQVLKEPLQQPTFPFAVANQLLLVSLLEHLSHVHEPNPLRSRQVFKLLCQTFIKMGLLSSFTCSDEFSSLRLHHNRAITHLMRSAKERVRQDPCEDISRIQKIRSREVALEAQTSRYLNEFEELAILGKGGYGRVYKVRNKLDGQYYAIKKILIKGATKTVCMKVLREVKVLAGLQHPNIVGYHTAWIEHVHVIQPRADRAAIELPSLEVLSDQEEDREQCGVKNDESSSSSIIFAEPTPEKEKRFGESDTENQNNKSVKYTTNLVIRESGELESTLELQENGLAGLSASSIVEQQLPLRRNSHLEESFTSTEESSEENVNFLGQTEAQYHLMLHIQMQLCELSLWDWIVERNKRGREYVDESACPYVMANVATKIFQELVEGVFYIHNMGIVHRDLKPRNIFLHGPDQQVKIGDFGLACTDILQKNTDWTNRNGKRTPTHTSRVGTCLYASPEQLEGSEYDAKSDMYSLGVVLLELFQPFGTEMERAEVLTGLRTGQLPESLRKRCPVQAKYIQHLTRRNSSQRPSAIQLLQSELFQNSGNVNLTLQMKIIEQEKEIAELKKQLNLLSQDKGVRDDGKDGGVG", "conditions": "1 µM; inhibitor"}, "BUB1B": {"molecular_target": "BUB1B (Homo sapiens, UniProt O60566)", "conditions": "1 µM; inhibitor"}, "COT": {"molecular_target": "COT (Homo sapiens, UniProt P41279)", "conditions": "1 µM; inhibitor"}, "MST4": {"molecular_target": "MST4 (Homo sapiens, UniProt Q9P289)", "conditions": "1 µM; inhibitor"}, "p38g": {"molecular_target": "p38g (Homo sapiens, UniProt P53778)", "sequence (P53778 whole entry)": "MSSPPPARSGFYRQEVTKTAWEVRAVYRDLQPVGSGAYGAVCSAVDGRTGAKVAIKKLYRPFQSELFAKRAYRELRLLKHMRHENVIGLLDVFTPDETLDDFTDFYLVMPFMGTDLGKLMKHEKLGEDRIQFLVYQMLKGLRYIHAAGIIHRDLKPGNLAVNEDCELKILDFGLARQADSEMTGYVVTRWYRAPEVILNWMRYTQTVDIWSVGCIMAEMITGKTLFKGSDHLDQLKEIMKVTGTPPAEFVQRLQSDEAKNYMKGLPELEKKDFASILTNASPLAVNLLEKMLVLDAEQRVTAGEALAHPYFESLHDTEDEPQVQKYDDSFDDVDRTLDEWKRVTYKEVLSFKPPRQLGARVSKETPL", "conditions": "1 µM; inhibitor"}, "PIM3": {"molecular_target": "PIM3 (Homo sapiens, UniProt Q86V86)", "conditions": "1 µM; inhibitor"}, "LTK": {"molecular_target": "LTK (Homo sapiens, UniProt P29376)", "sequence (P29376 whole entry)": "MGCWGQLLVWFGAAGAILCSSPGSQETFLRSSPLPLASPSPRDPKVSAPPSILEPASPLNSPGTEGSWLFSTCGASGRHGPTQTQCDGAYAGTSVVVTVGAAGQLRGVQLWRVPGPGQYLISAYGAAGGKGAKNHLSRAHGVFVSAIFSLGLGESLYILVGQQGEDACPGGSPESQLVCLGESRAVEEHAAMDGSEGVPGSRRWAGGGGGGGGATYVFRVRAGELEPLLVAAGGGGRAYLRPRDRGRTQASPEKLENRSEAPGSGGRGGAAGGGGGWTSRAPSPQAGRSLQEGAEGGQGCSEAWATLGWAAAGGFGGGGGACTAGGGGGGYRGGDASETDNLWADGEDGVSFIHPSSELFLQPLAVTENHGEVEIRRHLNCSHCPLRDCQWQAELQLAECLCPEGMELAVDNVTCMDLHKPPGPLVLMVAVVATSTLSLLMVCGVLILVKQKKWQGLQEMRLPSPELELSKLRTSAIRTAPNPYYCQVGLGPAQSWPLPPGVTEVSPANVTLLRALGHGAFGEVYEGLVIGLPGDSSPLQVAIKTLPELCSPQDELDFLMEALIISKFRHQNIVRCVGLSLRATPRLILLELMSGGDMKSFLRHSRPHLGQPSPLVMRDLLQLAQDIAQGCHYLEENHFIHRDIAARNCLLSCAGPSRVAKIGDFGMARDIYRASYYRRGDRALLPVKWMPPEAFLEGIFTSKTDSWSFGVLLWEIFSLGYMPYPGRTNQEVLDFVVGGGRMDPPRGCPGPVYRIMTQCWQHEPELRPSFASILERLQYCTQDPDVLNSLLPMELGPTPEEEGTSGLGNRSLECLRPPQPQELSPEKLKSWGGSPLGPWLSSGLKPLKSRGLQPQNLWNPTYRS", "assay": "biochemical", "conditions": "read-out: 21c Remaining activity, percent of control [%]"}, "TTBK1": {"molecular_target": "TTBK1 (Homo sapiens, UniProt Q5TCY1)", "assay": "biochemical", "conditions": "read-out: 21c Remaining activity, percent of control [%]"}, "MST3": {"molecular_target": "MST3 (Homo sapiens, UniProt Q9Y6E0)", "assay": "biochemical", "conditions": "1 µM; inhibitor"}, "DYRK1B": {"molecular_target": "DYRK1B (Homo sapiens, UniProt Q9Y463)", "assay": "biochemical", "conditions": "read-out: 21c Remaining activity, percent of control [%]"}, "STK33": {"molecular_target": "STK33 (Homo sapiens, UniProt Q9BYT3)", "assay": "biochemical", "conditions": "read-out: 21c Remaining activity, percent of control [%]"}, "[2]": {"molecular_target": "MST4 (full-length, NanoLuc fusion) (Homo sapiens, UniProt Q9P289)", "assay": "NanoBRET tracer displacement, HEK293T", "format": "cell-based"}},
  "data": [
    {"smiles": "O=C1NCCCCCNc2nc(c3ccccc3n2)Nc2cc1[nH]n2", "note": "[21c, (Z)-3^1H-2,5,11-triaza-1(4,2)-quinazolina-3(3,5)-pyrazolacycloundecaphan-4-one]", "values": [
      {"measurement": "EC50", "setting": "[1]", "result": 0.106, "unit": "µM"},
      {"measurement": "EC50", "setting": "LIMK2", "result": 1.4, "unit": "µM"},
      {"measurement": "21c Remaining activity, percent of control [%]", "setting": "IRAK1", "result": 101.8, "unit": "%"},
      {"measurement": "21c Remaining activity, percent of control [%]", "setting": "CDK17", "result": 70.9, "unit": "%"},
      {"measurement": "21c Remaining activity, percent of control [%]", "setting": "PHKG2", "result": 98.0, "unit": "%"},
      {"measurement": "21c Remaining activity, percent of control [%]", "setting": "SNK", "result": 78.3, "unit": "%"},
      {"measurement": "21c Remaining activity, percent of control [%]", "setting": "PAK3", "result": 103.3, "unit": "%"},
      {"measurement": "21c Remaining activity, percent of control [%]", "setting": "PIM2", "result": 103.1, "unit": "%"},
      {"measurement": "21c Remaining activity, percent of control [%]", "setting": "SRC", "result": 94.8, "unit": "%"},
      {"measurement": "21c Remaining activity, percent of control [%]", "setting": "HIPK4", "result": 115.2, "unit": "%"},
      {"measurement": "21c Remaining activity, percent of control [%]", "setting": "VRK1", "result": 91.5, "unit": "%"},
      {"measurement": "21c Remaining activity, percent of control [%]", "setting": "PKCmu", "result": 96.1, "unit": "%"},
      {"measurement": "21c Remaining activity, percent of control [%]", "setting": "PKCz", "result": 96.3, "unit": "%"},
      {"measurement": "21c Remaining activity, percent of control [%]", "setting": "KIT", "result": 69.4, "unit": "%"},
      {"measurement": "21c Remaining activity, percent of control [%]", "setting": "RPS6KA2", "result": 84.0, "unit": "%"},
      {"measurement": "21c Remaining activity, percent of control [%]", "setting": "BMPR1B", "result": 80.1, "unit": "%"},
      {"measurement": "21c Remaining activity, percent of control [%]", "setting": "CAMKK2", "result": 90.8, "unit": "%"},
      {"measurement": "21c Remaining activity, percent of control [%]", "setting": "EPHB3", "result": 105.4, "unit": "%"},
      {"measurement": "21c Remaining activity, percent of control [%]", "setting": "MATK", "result": 78.6, "unit": "%"},
      {"measurement": "21c Remaining activity, percent of control [%]", "setting": "HRI", "result": 98.2, "unit": "%"},
      {"measurement": "21c Remaining activity, percent of control [%]", "setting": "BUB1B", "result": 101.6, "unit": "%"},
      {"measurement": "21c Remaining activity, percent of control [%]", "setting": "COT", "result": 115.1, "unit": "%"},
      {"measurement": "21c Remaining activity, percent of control [%]", "setting": "MST4", "result": 18.0, "unit": "%"},
      {"measurement": "21c Remaining activity, percent of control [%]", "setting": "p38g", "result": 88.6, "unit": "%"},
      {"measurement": "21c Remaining activity, percent of control [%]", "setting": "PIM3", "result": 88.9, "unit": "%"},
      {"measurement": "remaining activity at 1 µM", "setting": "LTK", "result": 92, "unit": "%"},
      {"measurement": "remaining activity at 1 µM", "setting": "TTBK1", "result": 112, "unit": "%"},
      {"measurement": "21c Remaining activity, percent of control [%]", "setting": "MST3", "result": 13.5, "unit": "%"},
      {"measurement": "remaining activity at 1 µM", "setting": "DYRK1B", "result": 79.7, "unit": "%"},
      {"measurement": "remaining activity at 1 µM", "setting": "STK33", "result": 88.7, "unit": "%"},
      {"measurement": "EC50", "setting": "[2]", "result": 1.4, "unit": "µM"}
    ]}
  ]
}
